Measurements published in ChEMBL document CHEMBL1201862, “PubChem BioAssay data set” (2004).
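Following 48 hours of exposure in 96-well plates, responses at five concentrations were used to interpolate endpoints linearly. GI50 = concentration required for 50% inhibition of growth.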 The source made the active and inactive calls. Rule as the data show it: active = GI50 up to about 1.1 µM and inactive = higher.

Assays:
Test in all cases: inhibition of tumour cell growth, NCI panel, 48 h
[1] = tested on: A498
[2] = tested on: A549
[3] = tested on: ACHN
[4] = tested on: DU-145
[5] = tested on: HCT-116
[6] = tested on: HL-60
[7] = tested on: HOP-62
[8] = tested on: M14
[9] = tested on: MDA-MB-435
[10] = tested on: Malme-3M
[11] = tested on: NCI/ADR-RES
[12] = tested on: OVCAR-8
[13] = tested on: RPMI-8226
[14] = tested on: RXF 393
[15] = tested on: SNB-75
[16] = tested on: U-251
[17] = tested on: UO-31
[18] = tested on: T47D
[19] = tested on: UACC-257

Measured: GI50

NS(=O)(=O)c1nnc(NS(=O)(=O)C(F)(F)F)s1
inactive: [1] > 100 µM | [2] > 100 µM | [3] > 100 µM | [4] > 100 µM | [5] > 100 µM | [6] > 100 µM | [7] > 100 µM | [8] > 100 µM | [9] > 100 µM | [10] > 100 µM | [11] > 100 µM | [12] > 100 µM | [13] > 100 µM | [14] > 100 µM | [15] > 100 µM | [16] > 100 µM | [17] > 100 µM

CN1C(=O)C(=CNc2ccc(Cl)cc2Cl)C(=O)N(C)C1=O
inactive: [1] > 100 µM | [2] > 100 µM | [3] > 100 µM | [5] > 100 µM | [7] > 100 µM | [8] > 100 µM | [9] > 100 µM | [10] > 100 µM | [11] > 100 µM | [12] 17.9 µM | [13] > 100 µM | [14] > 100 µM | [15] > 100 µM | [18] > 100 µM | [16] > 100 µM | [19] > 100 µM | [17] > 100 µM

Cc1sc(Nc2ccc(Nc3nc(-c4ccccc4)c(C)s3)cc2)nc1-c1ccccc1
inactive: [1] 21.8 µM | [2] 30.1 µM | [3] 36.5 µM | [4] 74 µM | [5] 62.2 µM | [7] > 100 µM | [8] 61.2 µM | [9] > 100 µM | [10] > 100 µM | [11] 41.4 µM | [12] > 100 µM | [14] 8.67 µM | [15] 48.4 µM | [18] 8.95 µM | [16] 13.7 µM | [19] 43.1 µM | [17] 89.7 µM

N#C/C(=C\c1ccc(O)cc1O)C(N)=O
inactive: [1] 65 µM | [2] > 100 µM | [3] 32.7 µM | [5] 94.2 µM | [6] 53.6 µM | [7] > 100 µM | [8] 82.2 µM | [10] 90.8 µM | [12] > 100 µM | [13] 55.6 µM | [14] 20.5 µM | [15] 16.7 µM | [16] > 100 µM | [19] 51.1 µM | [17] 33.6 µM

CC1(C)CC(=O)C2=C(C1)N(c1ccccc1)C1(O)C=CC(O)=C3C(=O)c4ccccc4C(=O)C321 (configuration not stated)
inactive: [2] 67.5 µM | [3] 21.1 µM | [4] 74 µM | [5] 61.4 µM | [6] 37.2 µM | [7] 34.4 µM | [8] 40.5 µM | [9] 20.7 µM | [10] 26.7 µM | [11] 9.84 µM | [12] 37.8 µM | [13] 22.3 µM | [14] 19.8 µM | [15] 22.5 µM | [18] 45.3 µM | [16] 32.9 µM | [19] 33.8 µM | [17] 19.1 µM

COc1ccc(Cc2coc3ccccc3c2=O)cc1OC
inactive: [2] > 100 µM | [3] 72.4 µM | [4] > 100 µM | [5] 45.7 µM | [6] 86.5 µM | [7] 56.1 µM | [8] 53.8 µM | [9] 79.4 µM | [10] > 100 µM | [11] 36.1 µM | [12] > 100 µM | [13] 33.3 µM | [14] 52.4 µM | [15] > 100 µM | [18] 33.2 µM | [16] 72.1 µM | [19] 59.2 µM | [17] 38.5 µM

CCCc1ccc(/N=C\c2cc(OC)c(OC)c(OC)c2)cc1
inactive: [1] > 100 µM | [2] > 100 µM | [3] > 100 µM | [5] > 63.4 µM | [6] 21.5 µM | [7] > 100 µM | [8] > 100 µM | [10] > 100 µM | [12] > 100 µM | [13] 24.4 µM | [14] > 100 µM | [15] > 100 µM | [16] > 100 µM | [19] > 100 µM | [17] > 100 µM

CC1(C)S[C@@H]2[C@H](NC(=O)[C@H](N)c3ccccc3)C(=O)N2[C@H]1C(=O)O [AMPICILLIN]
inactive: [2] > 100 µM | [3] > 100 µM | [4] > 100 µM | [5] > 100 µM | [6] > 100 µM | [7] > 100 µM | [8] > 100 µM | [9] > 100 µM | [11] > 100 µM | [12] > 100 µM | [13] > 100 µM | [15] > 100 µM | [18] > 100 µM | [16] > 100 µM | [19] > 100 µM | [17] > 100 µM

CN1COc2c(n(C)c(=O)[nH]c2=O)C1
inactive: [1] > 100 µM | [2] > 100 µM | [3] > 100 µM | [5] 57.5 µM | [6] 24.4 µM | [7] > 100 µM | [8] > 100 µM | [10] > 100 µM | [12] > 95.7 µM | [13] 26.1 µM | [14] > 66.7 µM | [15] > 100 µM | [16] > 100 µM | [19] > 100 µM | [17] > 100 µM

C=C1C(=O)OC2C1C(OC(=O)/C(C)=C\C)CC1(CO1)C1C(O)C=C(C)C21O (configuration not stated)
inactive: [1] 5.02 µM | [2] 20.6 µM | [3] 3.16 µM | [5] 1.53 µM | [6] 3.04 µM | [7] 23.6 µM | [8] 2.63 µM | [10] 2.74 µM | [12] 2.67 µM | [13] 4.56 µM | [14] 2.73 µM | [15] 10.6 µM | [16] 12.2 µM | [19] 9.73 µM | [17] 10.3 µM

Nc1c([N+](=O)[O-])nc(Cl)c2nncn12
inactive: [1] > 100 µM | [2] > 100 µM | [3] > 100 µM | [5] > 45 µM | [6] > 100 µM | [7] > 100 µM | [8] > 100 µM | [10] > 100 µM | [12] > 100 µM | [13] > 47.1 µM | [14] > 100 µM | [15] > 23.7 µM | [16] > 71.9 µM | [19] > 100 µM | [17] > 100 µM

CCCCCCC(C)CC(CCCCCC)NCCOC(=O)c1ccc([N+](=O)[O-])cc1 (configuration not stated)
inactive: [1] 18.4 µM | [2] 15.1 µM | [3] 13.3 µM | [4] 12.2 µM | [5] 8.18 µM | [7] 14.3 µM | [10] 11.1 µM | [11] 13.4 µM | [12] 5.66 µM | [15] 16 µM | [18] 10.7 µM | [16] 11.1 µM | [19] 4.98 µM | [17] 10.4 µM
